Columns and labels:
[1] = system: VM-M3 tumour cells; test: VM-M3 brain tumour histology (H&E) and Ki-67 staining; type: in vivo, mouse (VM/Dk); settings: compared with SD-UR brains
Text: VM/Dk mice were implanted with VM-M3 cells orthotopically in the brain on day 0 as described in the previous figures. The brains were fixed in formalin for histology, processed, and stained as described in Methods. Histological analysis (H&E) was used to validate the presence of tumour cells, FIG. 3A. […] DAPI is used for the Ki-67 negative nuclear stain.
Brain tumour samples were fixed in 10% neutral buffered formalin (Sigma) and embedded in paraffin. The brain tumour samples were sectioned at 5 μm, were stained with haematoxylin and eosin (H&E) at the Harvard University Rodent Histopathology Core Facility (Boston, Mass.), and were examined by light microscopy using either a Zeiss Axioplan 2 or Nikon SMZ1500 light microscope. Images were acquired using SPOT Imaging Solutions (Diagnostic Instruments, Inc.) cameras and software. All histological sections were evaluated at the Harvard University Rodent Histopathology Core Facility.
For immunohistochemistry, the tissue sections from untreated and treated tumour bearing mice were deparaffinized, rehydrated, and washed. The tissue sections were then heat treated (95° C.) in antigen unmasking solution (Vector Laboratories, Burlingame, Calif.) for 30 min. […] Nuclei were stained using NucBlue (Invitrogen). Images were captured by the EVOS FL Cell Imaging System fluorescent microscope. […]

[2] = Toxicity and body weight observations in DON treated mice; type: in vivo, mouse
Method: FIG. 11. Body weights of VM-M3 tumour bearing mice. VM-M3/Fluc tumour fragments were implanted as described in FIGS. 1A-1F. Body weight was determined every alternate day. Initial and final body weight data are presented. Mice fed the SD-UR began to drop body weight on the day of termination due to tumour burden. Mice fed the KD-R maintained a 15-18% body weight reduction throughout the experiment due to reduced caloric intake. Initial and final body weights were similar in the SD-UR and the SD-UR+DON mice (n=15 mice/group). Final body weights were lower than initial body weights in the KD-R and the KD-R+DON mice (n=15 mice/each group). Values are expressed as the mean+/−SEM and a two tailed student's t-test was performed between the initial and final values of each group (*=p<0.01).
It is proposed that issues with DON toxicity arise when there is an appreciable competition for glutamine between host and tumour. There is also increasing evidence supporting the protective role of glutamine supplementation for cancer patients^46. Since tumour consumption of glutamine is dissipative, glutamine supplementation might not increase tumour growth^46. However, additional preclinical studies are needed to determine if glutamine supplementation could be used together with DON. The present disclosure provides that strategies for managing toxicity of a therapeutically effective drug would be as important as developing a new drug.
The following studies were to determine if the simultaneous targeting of glucose and glutamine, while under therapeutic ketosis, could manage late stage growth and enhance survival without toxicity in two different syngeneic mouse models of GBM. DON was administered 7 days after tumour implantation, which is considered late for the VM-M3/Fluc tumour, as neurological signs and symptoms first appear at 10 to 12 days post implantation with morbidity occurring in 100% of the tumour-bearing mice by 14-18 days^2. Additional results were obtained in C57BL/6J inbred mice bearing the syngeneic CT-2A high-grade stem cell glioma^32. […]

[3] = shown previously (ref 33); cited from earlier work
[4] = system: Iba-1; test: Iba-1 expression in VM-M3 brain tumour tissue (immunohistochemistry, western blot); type: in vivo, mouse (VM/Dk); settings: DON treated brain tumour tissue; immunohistochemistry and western blot
Method: FIGS. 6A-6C. Restricted Ketogenic diet with DON reduces the Iba-1 expression in the VM-M3 brain tumour tissue. Immunohistochemistry (IHC) of Iba-1 was performed in formalin fixed brain tissues as described in Methods. […] Western blot analysis of Iba-1 protein expression in the tumours indicates a decrease in the expression of Iba-1 in the DON treated tumours (n=3 mouse tumour brain tissue) in comparison to SD-UR (n=3 mouse tumour brain tissue). A decrease in expression was also seen for KD-R mice (n=2 mouse tumour brain tissue). Normal brain (NB) was used as a negative control tissue, FIGS. 6B and 6C.
Iba-1 protein expression was analyzed in the VM-M3 brain tumour tissue by immunohistochemistry and western blot. Iba-1 was heavily expressed in VM-M3 tumour and normal microglia/macrophages, as we described previously^37. The KD-R reduced the expression of Iba-1 as shown in both immunohistochemistry and western blot (FIGS. 6A and 6B). […]
Approximately 100 μg of total protein from each tissue sample was denatured with SDS-PAGE sample buffer [63 mmol/L Tris-HCl (pH 6.8), 10% glycerol, 2% SDS, 0.0025% bromphenol blue, and 5% 2-mercaptoethanol] and was resolved by SDS-PAGE on 4% to 12% Bis-Tris gels (Invitrogen). […] Each membrane was stripped and reprobed for β-actin as an internal loading control and the ratio of the Iba-1 to β-actin was analyzed by scanning densitometry (FluorChem 8900 Software).

With [N-]=[N+]=CC(=O)CC[C@H](N)C(=O)O [DON, 6-diazo-5-oxo-L-norleucine] the “histology (H&E) of primary tumour” value [1] was “significant area of dead cells”, the “toxic effects in non-tumour-bearing VM/Dk mice” value ([2]; DON at the concentrations used in this study) was “no toxic effects” and the “initial versus final body weight” value ([2]; VM-M3 tumour bearing mice, n=15 mice/group) was “similar”. For the same molecule, the “toxicity in DON treated tumour-bearing mice” value ([2]; until end of study, when mild muscle loss was observed in some mice) was “No noticeable toxicity”, the “toxic effects in C57BL/6J mice” value [3] was “no toxic effects” and the Iba-1 expression [4] was “significant reduction”.
